Test results published in US20260317367A1, “SALTS INCLUDING CRYSTALLINE SALTS OF 25-HYDROXY-CHOLEST-5-EN-3-SULFATE AND METHODS FOR PREPARING SAME” (Durect Corporation, priority 2022, published 2026).
Counter-ions that a name gives are not always drawn.

Legend:
Type in all cases: physicochemical
[1] = Appearance (color, clumping, flowability) of stored 25HC3S salts
Procedure: (§1) Approximately 25 mg of each crystalline 25HC3S salt was added to 20 mL glass vials and each powder weight was recorded. Four vials were prepared for each salt and stored at 2-8° C. or 80° C. according to Table B2. The samples were scheduled initially to pull for testing at 3 weeks and 6 weeks' time points.
(§2) For those […] salts, the remaining vials stored at 2-8° C. for 3 weeks were allocated for storage at 60° C. for 1 week. Additional stability data was generated according to Table B3.
For appearance, each unopened vial was visually examined for color, clumping, and flowability.

[2] = Thermogravimetric analysis (TGA), weight loss; settings: up to 200° C.; listed as crystalline 25HC3S t-butylammonium
Procedure: Differential scanning calorimetry (DSC) is a thermoanalytical technique where the difference in the amount of heat required to increase the temperature of a sample and reference is measured as a function of temperature. Using this technique, phase transitions of a sample can be measured such as melting point. Decomposition can also be observed by DSC as can dehydration events. In the context of DSC measurements, there is also variability and the term “about” means ±1° C., and such variability is to be understood whether a DSC measurement is prefaced by “about” or not unless specified otherwise. Exemplary methods for collecting DSC data are set forth in Example 21. Thermogravimetric analysis, sometimes referred to as, thermal gravimetric analysis (TGA) is a thermal method of thermal analysis where the mass of a sample is measured as a function of time as the sample temperature changes. For example, when samples disclosed herein are heated and a loss in mass is measured prior to decomposition, this is likely indicative of the loss of water from the sample and may indicate that the sample being heated is a hydrate. Exemplary methods for collecting TGA are set forth in Example 23.
TG analysis was performed using a Mettler-Toledo TGA/DSC3 analyzer. Temperature and enthalpy adjustments were performed using indium, tin, and zinc, and then verified with indium. The balance was verified with calcium oxalate. The sample was placed in an open aluminum pan. The pan was hermetically sealed, the lid pierced, then inserted into the TG furnace. A weighed aluminum pan configured as the sample pan was placed on the reference platform. The furnace was heated under nitrogen. Each sample was heated from ambient temperature to 350° C. at 10° C./min. Although thermograms are plotted by reference temperature (x-axis), results are reported according to sample temperatures.

[3] = Angle of repose of 25HC3S salts; settings: listed as 25HC3S t-butylammonium
Procedure: Angle of repose is measured as follows. Powder is poured from a funnel onto a flat surface until a cone of powder is created. The angle of repose is calculated according to the following equation: […]
Table C1, from USP<1174> Powder Flow, describes the powder flow properties correlating to the angles of repose.
The lower the angle of repose, the more flowable is a material. Powder with an angle of repose between 25° to 30° will show excellent flow through a hopper, feed frame, die table and die bore smoothly. From 41° to greater than 66°, you may experience powder flow difficulties like rat-holing or bridging within the hopper.
The angle of repose was determined by pouring approximately 2 grams of a 25HC3S salt through a 7 mm inner diameter plastic tube into the center of a 21.14 mm diameter rubber O-ring, resulting in the formation of a powder cone of fixed diameter. The height of the cone was estimated with calipers.

[4] = Overall rank order of powder flowability (angle of repose and Hausner ratio)
Text: Table C5 was generated by adding the relative rank order of the 25HC3S salts for angle of repose and Hausner ratio results, and creating an Over All Rank Order of the salts powder flowability. The salts with the lower overall rank order score had better powder flowability.

[5] = Final pH of the solubility sample solutions in aqueous media
Procedure: 25HC3S salts were weighed in 8 mL or 4 mL glass vials with Teflon coated screw caps. Aliquots of each solvent were added to each sample and vortexed for about one minute until excess solid remained. Samples were placed on shaker at room temperature with 210 motion per minute shaking.
After one day, samples were pulled and checked if excess solid was present. About 1.5 mL aliquot of each sample was centrifuged at 12000 rpm for 12 to 15 minutes. […] Aliquots of the top clear solution of each centrifuged sample in MeOH, EtOH, IPA and ACN were diluted with diluent (water:MeOH 95:5) and assayed by HPLC. Samples of the salts in aqueous media were assayed by HPLC without dilution.
5.1 Solubility of 25HC3S Salts in Aqueous Media

[6] = Solid-state chemical stability of 25HC3S salts at 2-8° C., 60° C. and 80° C. (HPLC assay and degradation products); settings: for % Impurities, Total / % Impurities, 25-HC: ND = Not Detected; for Overall physical and chemical stability (in words): 60° C.; for % Impurities, 25-HC: 25-Hydroxy-Cholesterol
Procedure: as §1, §2
Based on the molecular weights, and expected UV response factors of each salt used in this study, the expected analytical sample concentrations were within the range of the 25HC3S sodium reference standards (0.75 mg/mL to 1.25 mg/mL as 25HC3S sodium salt). However, due to the lower-than-expected purity of the 25HC3S benzathine salt, an additional standard was prepared at 0.125 mg/mL as 25HC3S sodium salt.
Samples were prepared by pipetting 20 mL of 100% methanol into each vial and mixing well, with sonication and vortexing to fully dissolve the samples for HPLC analysis.
Samples were prepared by pipetting 20 mL of 100% methanol into each vial followed by two rounds of sonication for 30 minutes, with 30 seconds of vortexing before and after each round. Sample aliquots were then centrifuged at 10,000 RPM for 10 minutes and the supernatant collected for HPLC analysis.
Samples were prepared by pipetting 20 mL of 100% methanol into each vial, followed by 5 seconds of vortexing. The undissolved powder in methanol was quantitatively transferred into 200 mL volumetric flasks. The sample vials were rinsed 3 times with methanol, with each rinsate transferred to the 200 mL volumetric flasks. The volumetric flasks were filled to about 90% volume and sonicated for 10 minutes to fully dissolve the powder. The flasks were filled to volume with methanol, mixed well and aliquots collected for HPLC analysis.
HPLC analysis was performed.

[7] = 2-8° C., 3 wk, listed as 25HC3S t-butylammonium
[8] = 80° C., 3 wk, listed as 25HC3S t-butylammonium
[9] = rank, lower is better flow, listed as 25HC3S t-butylammonium
[10] = 2-8° C., 5 wk, listed as 25HC3S t-butylammonium
[11] = 80° C., 5 wk, listed as 25HC3S t-butylammonium
[12] = 80° C., 5 wk, 50400 min, listed as 25HC3S t-butylammonium

SMILES: CC(CCCC(C)(C)O)C1CCC2C3CC=C4CC(OS(=O)(=O)O)CCC4(C)C3CCC12C (stereo not shown) [Salt #12]
- Appearance [1, 7]: White, free flowing powder with clumping
- Appearance ([1]; 2-8° C., 5 wk): White, free flowing powder with clumping
- Appearance [1, 8]: White, free flowing powder with clumping
- Appearance ([1]; 80° C., 5 wk): White, free flowing powder with clumping
- Weight loss by TGA up to 200° C. [2]: 0.2%
- Flow Property per USP<1174> Powder Flow ([3]; classification by angle of repose): Poor - must agitate,
- Angle of Repose [3]: 46.3 degrees
- Angle of Repose, Rounded Whole Number ([3]; rounded whole number): 46 degrees
- Powder flowability, overall (in words) ([4]; angle of repose and compressibility index/Hausner ratio combined, listed as t-butylammonium): poorer flowability
- Angle of Repose Rank Order [4, 9]: 13
- Hausner Ratio Rank Order [4, 9]: 8
- Overall Rank Order (Total Score) ([4]; sum of both ranks, lower is better flow, listed as 25HC3S t-butylammonium): 21
- pH of the solubility sample, 0.9% Sodium Chloride ([5]; 0.9% sodium chloride (blank 5.8), listed as 25HC3S t-butylammonium): 8.4
- pH of the solubility sample, 5% Dextrose ([5]; 5% dextrose (blank 4.7), listed as 25HC3S t-butylammonium): 7.2
- pH of the solubility sample, FaSSGF ([5]; FaSSGF (blank 1.5, 1.6)): 1.6
- pH of the solubility sample, FaSSIF ([5]; FaSSIF (blank 6.5, 6.5), listed as 25HC3S t-butylammonium): 6.5
- pH of the solubility sample, FeSSIF ([5]; FeSSIF (blank 4.9, 5.0)): 5.0
- pH of the solubility sample, Water ([5]; water (blank 6.3), listed as 25HC3S t-butylammonium): 8.5
- Assay ([6]; 2-8° C., 3 wk, 30240 min, listed as 25HC3S t-butylammonium): 99.8 % w/w
- % Impurities, Total [6, 7]: 1.5%
- Assay ([6]; 2-8° C., 5 wk, 50400 min, listed as 25HC3S t-butylammonium): 106.2 % w/w
- % Impurities, Total [6, 10]: 1.5%
- Overall physical and chemical stability (in words) ([6]; 2-8° C., 80° C.): physically and chemically stable
- Overall physical and chemical stability (in words) ([6]; 2-8° C., 80° C., listed as t-butylammonium): relatively stable
- % Impurities, 25-HC [6, 7]: 0.3%
- % Impurities, 25-HC [6, 10]: 0.3%
- % Impurities, 25-HC [6, 8]: 0.3%
- % Impurities, 25-HC [6, 11]: 0.2%
- Stressed stability at 80° C. (in words) ([6]; 80° C.): good, stressed stability
- % Recovery ([6]; 80° C., 3 wk, vs 2-8° C., 30240 min, listed as 25HC3S t-butylammonium, 30240 min): 99.4%
- Assay ([6]; 80° C., 3 wk, 30240 min, listed as 25HC3S t-butylammonium): 99.2 % w/w
- % Impurities, Total [6, 8]: 1.7%
- Physical and chemical solid-state stability (comments) ([6]; 80° C., 5 weeks): Stable after 5 weeks at 80 °C physically and chemically.
- % Recovery, 2-8° C./5 wk vs 80° C./5 wk [6, 12]: 98.8%
- Assay [6, 12]: 104.9 % w/w
- % Impurities, Total [6, 11]: 1.6%
- Stability after 5 weeks at 80° C. (in words) ([6]; solid state, 80° C., 5 weeks): stable
